Tested on: vascular smooth muscle cell (SMC)
Assay: Effect on proliferation of vascular smooth muscle cell (SMC), XTT assay
Format: cell-based
Conditions: 1 uM; 1, 4, and 7 days; vs non-treated control that continuously grew until 7 days
Protocol: As cells used in a cell culture, the vascular smooth muscle cell (SMC) which is a smooth muscle cell, and the human umbilical vein endothelial cell (HUVEC) which is the cell for promoting vascular re-endothelialization were purchased from Korea Cell Line Bank, respectively. The cell culture was performed by culturing the vascular smooth muscle cell (SMC) and the human umbilical vein endothelial cell (HUVEC) in Dulbecoco's modified eagle medium (DMEM) with 10% fetal bovine serum (FBS) under conditions of 37° C. and 5% CO2. […]
(§1) 5×10^4 of SMC cells cultured according to Example 2 were cultured in the 24-well cell culture plate and then treated with 1 uM of the peptide compound prepared by Example 2 (hereinafter, referred to as ‘EVR-P’). […] After the reaction, 200 ul of the culture medium was transferred from each well to a 96 well cell culture dish, and degree of color change was measured from absorbance at a 450 nm wavelength by a spectroscopy.
as §1, with “the known Everolimus (EVR)(LC Laboratories).” for “the peptide compound prepared by Example 2 (hereinafter, referred to as ‘EVR-P’).”, “to the” for “to a”

CO[C@H]1C[C@@H]2CC[C@@H](C)[C@@](O)(O2)C(=O)C(=O)N2CCCC[C@H]2C(=O)O[C@H]([C@H](C)C[C@@H]2CC[C@@H](OCCO)[C@H](OC)C2)CC(=O)[C@H](C)/C=C(\C)[C@@H](O)[C@@H](OC)C(=O)[C@H](C)C[C@H](C)/C=C/C=C/C=C/1C [EVR, Everolimus]
SMC cell proliferation (XTT, absorbance at 450 nm): cell proliferation was inhibited

Source: patent US20160235806A1, “Novel Peptide Compound for Inhibiting Restenosis and Promoting Re-Endothelialization and Method for Preparing the Same” (Chonnam National University Hospital, priority 2014, published 2016)
